Test results: PubChem BioAssay AID2060908 (Molecular Pharmacology Branch, DTP, NCI, 2025)
pIC50: −log10 of the molar value.

Tested on: 186277-243-T-J2-PDC complex spheroids, viability
Test: Anticancer human tumor 186277-243-T-J2-PDC patient-derived colon adenocarcinoma cell line growth inhibition [RAS]
Settings: for pIC50: curve of first compound; for viability, T/C: stronger effect = lower value
Outline: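 Agents were tested in combination matrices in half-log decrements from a top concentration at or near clinical Cmax (10 microM if undetermined). Targets were multi-cell spheroids of tumour lines plus HUVEC and MSC stromal cells.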
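Further: spheroids exposed to compounds for 7 days before viability read.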

With NC1c2ccccc2OC12CCN(c1cnc3c(N4CCCc5ncccc54)n[nH]c3n1)CC2 (stereo unspecified) + C=CC(=O)N1CCN(c2nc(OCC3CCCN3C)nc3c(F)c(-c4nc(N)cc(C)c4C(F)(F)F)c(Cl)cc23)C(C)C1 the pIC50 (second compound 0.00316 µM) was under 5.00, the pIC50 (second compound 0.01 µM) was under 5.00 and the pIC50 (second compound 0.0316 µM) was 5.04. The pIC50 (second compound 0.1 µM) was 5.04, the pIC50 (second compound 0.316 µM) was under 5.00 and the pIC50 (second compound 1 µM) was under 5.00. It also gave a viability, T/C (second compound 0.00316 µM, first compound 0.0316 µM) of 83.8%, a viability, T/C (second compound 0.00316 µM, first compound 0.1 µM) of 94.6% and a viability, T/C (second compound 0.00316 µM, first compound 0.316 µM) of 101%. For the same compound, the viability, T/C (second compound 0.00316 µM, first compound 1 µM) was 75%, the viability, T/C (second compound 0.00316 µM, first compound 3.16 µM) was 64.4% and the viability, T/C (second compound 0.00316 µM, first compound 10 µM) was 50.3%. The viability, T/C (second compound 0.01 µM, first compound 0.0316 µM) was 100%, the viability, T/C (second compound 0.01 µM, first compound 0.1 µM) was 109% and the viability, T/C (second compound 0.01 µM, first compound 0.316 µM) was 100%. It also gave a viability, T/C (second compound 0.01 µM, first compound 1 µM) of 67.9%, a viability, T/C (second compound 0.01 µM, first compound 3.16 µM) of 72.6% and a viability, T/C (second compound 0.01 µM, first compound 10 µM) of 57.6%. It also gave a viability, T/C (second compound 0.0316 µM, first compound 0.0316 µM) of 95.5%, a viability, T/C (second compound 0.0316 µM, first compound 0.1 µM) of 108% and a viability, T/C (second compound 0.0316 µM, first compound 0.316 µM) of 89.6%. For the same compound, the viability, T/C (second compound 0.0316 µM, first compound 1 µM) was 79.4%, the viability, T/C (second compound 0.0316 µM, first compound 3.16 µM) was 82.1% and the viability, T/C (second compound 0.0316 µM, first compound 10 µM) was 45.8%. For the same compound, the viability, T/C (second compound 0.1 µM, first compound 0.0316 µM) was 85%, the viability, T/C (second compound 0.1 µM, first compound 0.1 µM) was 96.7% and the viability, T/C (second compound 0.1 µM, first compound 0.316 µM) was 77.4%. For the same compound, the viability, T/C (second compound 0.1 µM, first compound 1 µM) was 80.7%, the viability, T/C (second compound 0.1 µM, first compound 3.16 µM) was 84% and the viability, T/C (second compound 0.1 µM, first compound 10 µM) was 47.3%. It also gave a viability, T/C (second compound 0.316 µM, first compound 0.0316 µM) of 108%, a viability, T/C (second compound 0.316 µM, first compound 0.1 µM) of 110% and a viability, T/C (second compound 0.316 µM, first compound 0.316 µM) of 88.7%. The viability, T/C (second compound 0.316 µM, first compound 1 µM) was 85.3%, the viability, T/C (second compound 0.316 µM, first compound 3.16 µM) was 84.3% and the viability, T/C (second compound 0.316 µM, first compound 10 µM) was 52.4%. It also gave a viability, T/C (second compound 1 µM, first compound 0.0316 µM) of 112%, a viability, T/C (second compound 1 µM, first compound 0.1 µM) of 92.5% and a viability, T/C (second compound 1 µM, first compound 0.316 µM) of 79.6%. For the same compound, the viability, T/C (second compound 1 µM, first compound 1 µM) was 88.7%, the viability, T/C (second compound 1 µM, first compound 3.16 µM) was 78.5% and the viability, T/C (second compound 1 µM, first compound 10 µM) was 45%.
CCc1c2c(nc3ccc(O)cc13)-c1cc3c(c(=O)n1C2)COC(=O)[C@]3(O)CC + C#Cc1c(F)ccc2cc(O)cc(-c3ncc4c(N5CC6CCC(C5)N6)nc(OCC56CCCN5CC(F)C6)nc4c3F)c12 gave a pIC50 (second compound 0.0316 µM) of 8.58, a pIC50 (second compound 0.1 µM) of over 9.02 and a pIC50 (second compound 0.316 µM) of over 9.02. For the same compound, the pIC50 (second compound 1 µM) was over 9.02, the pIC50 (second compound 3.16 µM) was over 9.02 and the pIC50 (second compound 10 µM) was over 9.02. It also gave a viability, T/C (second compound 0.0316 µM, first compound 0.000949 µM) of 72.5%, a viability, T/C (second compound 0.0316 µM, first compound 0.003 µM) of 40.5% and a viability, T/C (second compound 0.0316 µM, first compound 0.00949 µM) of 36.7%. For the same compound, the viability, T/C (second compound 0.0316 µM, first compound 0.03 µM) was 20.9%, the viability, T/C (second compound 0.0316 µM, first compound 0.0949 µM) was 8.73% and the viability, T/C (second compound 0.0316 µM, first compound 0.3 µM) was 5.87%. It also gave a viability, T/C (second compound 0.1 µM, first compound 0.000949 µM) of 35.5%, a viability, T/C (second compound 0.1 µM, first compound 0.003 µM) of 21.9% and a viability, T/C (second compound 0.1 µM, first compound 0.00949 µM) of 16.6%. It also gave a viability, T/C (second compound 0.1 µM, first compound 0.03 µM) of 12.2%, a viability, T/C (second compound 0.1 µM, first compound 0.0949 µM) of 5.42% and a viability, T/C (second compound 0.1 µM, first compound 0.3 µM) of 6.04%. It also gave a viability, T/C (second compound 0.316 µM, first compound 0.000949 µM) of 14.3%, a viability, T/C (second compound 0.316 µM, first compound 0.003 µM) of 14.1% and a viability, T/C (second compound 0.316 µM, first compound 0.00949 µM) of 9.89%. For the same compound, the viability, T/C (second compound 0.316 µM, first compound 0.03 µM) was 7.42%, the viability, T/C (second compound 0.316 µM, first compound 0.0949 µM) was 5.03% and the viability, T/C (second compound 0.316 µM, first compound 0.3 µM) was 3.68%. The viability, T/C (second compound 1 µM, first compound 0.000949 µM) was 7.55%, the viability, T/C (second compound 1 µM, first compound 0.003 µM) was 8.61% and the viability, T/C (second compound 1 µM, first compound 0.00949 µM) was 8.45%. The viability, T/C (second compound 1 µM, first compound 0.03 µM) was 6.92%, the viability, T/C (second compound 1 µM, first compound 0.0949 µM) was 4.24% and the viability, T/C (second compound 1 µM, first compound 0.3 µM) was 3.83%. For the same compound, the viability, T/C (second compound 3.16 µM, first compound 0.000949 µM) was 8.46%, the viability, T/C (second compound 3.16 µM, first compound 0.003 µM) was 7.85% and the viability, T/C (second compound 3.16 µM, first compound 0.00949 µM) was 7.31%. For the same compound, the viability, T/C (second compound 3.16 µM, first compound 0.03 µM) was 5.89%, the viability, T/C (second compound 3.16 µM, first compound 0.0949 µM) was 4.55% and the viability, T/C (second compound 3.16 µM, first compound 0.3 µM) was 2.75%. The viability, T/C (second compound 10 µM, first compound 0.000949 µM) was 6.68%, the viability, T/C (second compound 10 µM, first compound 0.003 µM) was 6.39% and the viability, T/C (second compound 10 µM, first compound 0.00949 µM) was 6.05%. For the same compound, the viability, T/C (second compound 10 µM, first compound 0.03 µM) was 5.42%, the viability, T/C (second compound 10 µM, first compound 0.0949 µM) was 3.58% and the viability, T/C (second compound 10 µM, first compound 0.3 µM) was 2.72%.
With CC1(O)CCCC1n1c(=O)c(C(F)F)cc2cnc(NC3CCN(S(C)(=O)=O)CC3)nc21 (stereo unspecified) + CCn1c(-c2cccnc2C(C)OC)c2c3cc(ccc31)N1CCOC(CC(NC(=O)C(C(C)C)N(C)C(=O)C3(F)CCN(C(=O)C#CC(C)(C)N(C)C)CC3)C(=O)N3CCCC(N3)C(=O)OCC(C)(C)C2)C1 the pIC50 (second compound 0.000949 µM) was 5.36, the pIC50 (second compound 0.003 µM) was 5.35 and the pIC50 (second compound 0.00949 µM) was 5.36. The pIC50 (second compound 0.03 µM) was 5.36, the pIC50 (second compound 0.0949 µM) was 5.44 and the pIC50 (second compound 0.3 µM) was 5.93. It also gave a viability, T/C (second compound 0.000949 µM, first compound 0.0316 µM) of 129%, a viability, T/C (second compound 0.000949 µM, first compound 0.1 µM) of 113% and a viability, T/C (second compound 0.000949 µM, first compound 0.316 µM) of 122%. For the same compound, the viability, T/C (second compound 0.000949 µM, first compound 1 µM) was 86.7%, the viability, T/C (second compound 0.000949 µM, first compound 3.16 µM) was 74.8% and the viability, T/C (second compound 0.000949 µM, first compound 10 µM) was 1.88%. For the same compound, the viability, T/C (second compound 0.003 µM, first compound 0.0316 µM) was 96.5%, the viability, T/C (second compound 0.003 µM, first compound 0.1 µM) was 122% and the viability, T/C (second compound 0.003 µM, first compound 0.316 µM) was 104%. It also gave a viability, T/C (second compound 0.003 µM, first compound 1 µM) of 93.2%, a viability, T/C (second compound 0.003 µM, first compound 3.16 µM) of 71.7% and a viability, T/C (second compound 0.003 µM, first compound 10 µM) of 2.18%. For the same compound, the viability, T/C (second compound 0.00949 µM, first compound 0.0316 µM) was 116%, the viability, T/C (second compound 0.00949 µM, first compound 0.1 µM) was 116% and the viability, T/C (second compound 0.00949 µM, first compound 0.316 µM) was 115%. It also gave a viability, T/C (second compound 0.00949 µM, first compound 1 µM) of 84.3%, a viability, T/C (second compound 0.00949 µM, first compound 3.16 µM) of 75.7% and a viability, T/C (second compound 0.00949 µM, first compound 10 µM) of 2.28%. For the same compound, the viability, T/C (second compound 0.03 µM, first compound 0.0316 µM) was 111%, the viability, T/C (second compound 0.03 µM, first compound 0.1 µM) was 117% and the viability, T/C (second compound 0.03 µM, first compound 0.316 µM) was 108%. For the same compound, the viability, T/C (second compound 0.03 µM, first compound 1 µM) was 80.3%, the viability, T/C (second compound 0.03 µM, first compound 3.16 µM) was 77.2% and the viability, T/C (second compound 0.03 µM, first compound 10 µM) was 1.84%. It also gave a viability, T/C (second compound 0.0949 µM, first compound 0.0316 µM) of 108%, a viability, T/C (second compound 0.0949 µM, first compound 0.1 µM) of 113% and a viability, T/C (second compound 0.0949 µM, first compound 0.316 µM) of 80.9%. For the same compound, the viability, T/C (second compound 0.0949 µM, first compound 1 µM) was 73.3%, the viability, T/C (second compound 0.0949 µM, first compound 3.16 µM) was 69% and the viability, T/C (second compound 0.0949 µM, first compound 10 µM) was 1.68%. For the same compound, the viability, T/C (second compound 0.3 µM, first compound 0.0316 µM) was 114%, the viability, T/C (second compound 0.3 µM, first compound 0.1 µM) was 91.7% and the viability, T/C (second compound 0.3 µM, first compound 0.316 µM) was 56.2%. The viability, T/C (second compound 0.3 µM, first compound 1 µM) was 56.8%, the viability, T/C (second compound 0.3 µM, first compound 3.16 µM) was 53.8% and the viability, T/C (second compound 0.3 µM, first compound 10 µM) was 0.94%.
